The values that follow come from US20250298027A1, “METHOD OF EVALUATING SMALL MOLECULE DISTRIBUTION USING TELLUROPHENE ANALOGUES” (THE GOVERNING COUNCIL OF THE UNIVERSITY OF TORONTO, priority 2022, published 2025).

The test system of series [1] is pH2AX^Ser139. Description: pH2AX immunohistochemistry of PANC-1 xenograft tumour sections. Format: in vivo, mice. Conditions: 20 mg/kg IP, 2 hours. As for the experimental part: PANC-1 xenograft-bearing mice were injected with either teniposide or the Te-teniposide analogue 1 IP. A dose of 20 mg/kg was selected based on literature reports detailing teniposide drug delivery strategies. After 2 hours, mice were sacrificed and tissues of interest were harvested, formalin fixed, and paraffin embedded. Tissue sections (5 um) were cut and mounted onto microscopy slides. The expression of pH2AX^Ser139 levels were first assessed by immunohistochemistry. Serial sections derived from PANC-1 xenograft tumours were stained with primary antibody and subsequently HRP-conjugated secondary antibody for standard brown staining. DSBs are indicated by large, discrete pH2AX^Ser139 foci. Representative images of immunostained slides show increased pH2AX^Ser139 levels in treated mice relative to saline injected control with clear, punctate staining (FIG. 7).

For series [2], the system named is Top2. Conditions: fluorescence anisotropy and DNA relaxation gel assays; read-out: IC50 of teniposide in literature; cited from earlier work. In general terms: In fluorescence polarisation assays a small probe gives low polarisation when free and higher when bound to something large.
Series [3] deals with T1, Top2 (Homo sapiens, UniProt P11388).
T1 construct: purchased TopoGEN, Inc
As to the kind of experiment: Top2 decatenation assay using kinetoplast DNA. To be noted: 5, 10, 25 and 50 μM. In kind it is biochemical. Here is the method:
The relative Top2 inhibitory activity of 1 in comparison to teniposide was evaluated in decatenation assays using kinetoplast DNA (kDNA). Decatenation of the DNA, catalyzed by Top2, can be readily resolved using agarose gel electrophoresis.
Top2 decatenation assay: The assay was performed according to manufacturer's protocol (TopoGEN, Inc.). The total reaction volume was 20 μL of assay buffer (120 mM KCl, 50 mM Tris-HCl, 10 mM MgCl2, 0.5 mM DTT, 0.5 mM ATP, and 30 μg/mL BSA) and 120 ng of kinetoplast DNA (kDNA) substrate. One unit of TopoII enzyme in was added to reaction microfuge tubes in the presence or absence of inhibitor. The reaction was incubated for 30 min at 37° C. The reaction was stopped by addition of 5 μL of stop buffer (5% sarkosyl, 0.025% bromophenolblue, and 50% glycerol). The samples were then analyzed using electrophoresis using a 1% agarose gel in Tris-borate-EDTA buffer with 0.5 pg/mL ethidium bromide stain. Gels were imaged using Syngene G: Box Gel Imager (Chemi-XT4 GENESys software with preset for ethidium bromide stained agarose gels). Band intensities were analyzed using ImageJ software.

The subject of series [4] is PANC-1 cells. As to the kind of experiment: alamarBlue viability assay in PANC-1 cells. In kind it is cell-based, Human. Conditions: maximum dose of 25 μM, 72 hours exposure. As for the experimental part: Similarly, PANC1 cells were characterized for later in vivo experiments. Using an alamarBlue viability assay and a proliferative assay, PANC-1 cells were incubated with 1 or teniposide.
AlamarBlue assay: PANC-1 cells were seeded into black, clear-bottom 96-well assay plates (Corning; CLS3603) and incubated for 24 hours. The medium was replaced with […] of teniposide or compound 1. After 72 hours exposure to drug, alamarBlue (Thermo Fisher Scientific; DAL1100) cell viability reagent was added and incubated for 4 hours at 37° C. Fluorescence intensity was measured using an excitation wavelength of 560 nm and an emission of 590 nm. Cell viability was calculated by normalizing to an untreated control.
Background: The colour change of resazurin is a common sign of viable cells or microbes.

The test system of series [5] is HL-60 cells. As to the kind of experiment: WST-1 viability assay in HL-60 cells. In kind it is cell-based. Conditions: Homo sapiens, HL-60; 24 hours, maximum concentration of 50 μM; read-out: inhibition of proliferation of HL-60 cells. As for the experimental part:
The toxicity of 1 was compared to teniposide in HL-60 cells after incubation for 24 hours using a WST-1 viability assay.
WST-1 metabolic cytotoxicity assay: HL-60 cells (ATCC® CCL-240TM) were maintained in DMEM media with 2 mM L-glutamine (Gibco) supplemented with 20% calf serum and 100× dilution of penicillin-streptomycin solution (Gibco). Cells were maintained at 37° C. in a humidified atmosphere of 5% CO2 in air. HL-60 cells (100 pL) were seeded into a 96 well clear at a density of 5×10^5 cells/mL. Cells were treated with either DMSO or appropriate inhibitor from DMSO stocks. […] Cells were incubated for 24 h at 37° C. under a 5% CO2 atmosphere. WST-1 reagent (10 pL; Roche Diagnostics, 05015944001) was added to each well and gently mixed by pipetting. Cells were incubated for 1 h at 37° C. under 5% CO2 atmosphere. UV-vis absorbance measurements of each well at 450 nm was recorded using a TECAN Safire 2 plate reader. Data was background corrected against wells that contained cell growth media without cells and WST-1. Experiment was performed in triplicate.
On the technique in general: Formazan colour is commonly taken as a measure of viable cells.

Series [6] relates to pH2AX^Ser139. Description: pH2AX Western blotting in PANC-1 cells. In kind it is cell-based, Human. To be noted: 1 μM, 24 and 48 hours. As for the experimental part: Next, the ability of 1 to induce DSBs—the dominant type of DNA damage resulting from Top2 inhibition was investigated. In response to DSBs, a cascade of DNA repair mechanisms are triggered, including-phosphorylation of the histone variant H2AX at Ser139. Thus, the level of pH2AX^Ser139 serves as a reliable marker for Top2-linked DSBs. Western blotting was used to measure pH2AX^Ser139 in PANC-1 cells treated with 1 μM of either 1 or teniposide for 24 and 48 hours.
pH2AX Blotting: PANC-1 cells (0.5×10^6) cells were seeded in 60 mm plastic petri dishes (Corning Inc. NY) and incubated for 18 h. The spent medium is removed and replaced with fresh medium containing drug ([…]) and incubated for either 24 or 48h. Control cells were treated with DMSO only. The cells were then lysed with RIPA buffer (25 mM Tris·HCl PH 7.6, 150 mM NaCl, 1% NP-40, 1% sodium deoxycholate, 0.1% SDS) (ThermoFisher Scientific) containing Halt Protease Inhibitor Cocktail (Cat. No. 78410) and Halt Phosphatase Inhibitor Cocktail (Cat. No. 78420) as per manufacturer's protocol. […] Antibodies (Abcam, Cambridge, MA) targeting the following proteins were used H2AX (S139) (ab11174, polyclonal) and β-tubulin (ab6046, polyclonal).

The conditions of series [7]: mice, depending on route of administration and dosing regimen; cited from earlier work.
Series [8] relates to Jurkat cells. As to the kind of experiment: 7b and 8b incorporation into living Jurkat cells with or without Carfilzomib (CyTOF). In kind it is cell-based. To be noted: 1 hour. Here is the method:
Co-dosing of cells with Te-Car 7b and Car lead to an approximately 50% reduction in Te labelling confirming the on-target labelling of modified compound (FIG. 10). This evidence supports that TeCar can be used to monitor Carfilzomib's target engagement in a more complex and disease-relevant samples.
Jurkat cells were seeded in […] plastic culture flasks at a concentration of approximately 5 million cells/mL for 24 hours prior to dosing. The cells were dosed with either Carfilzomib, 7b, or 8b at a final concentration of 500 nM, or a combination of Carfilzomib/7b (500 nM each), Carfilzomib/8b (500 nM each), or a DMSO control (final percentage of 0.5%) in complete media for 1 hour.
The media was then immediately removed, and the cells resuspended in 3 mL of cold phosphate-buffered saline (PBS), before being aliquoted into three 1 mL aliquots per each dosing regime. The samples were then prepped for CYTOF® analysis.
Briefly, each sample aliquot was washed three times with cold PBS (1 mL×3). The cells were then fixed, permeabilized, and stained with Cell-ID™ Intercalator-Ir stain in PBS (1 mL) for 1 hour at rt. […]
CYTOF® analysis was conducted the following day. […] The average ^128Te signal in the population of cells (events positive for 191 Ir and 193Ir signal) for each sample was determined.

Series [9] has as its system Jurkat cells. As to the kind of experiment: Cell viability in Jurkat cells (WST-1). Format: cell-based. Here is the method: In Jurkat cells treated with increasing concentrations of TeCar 7b, a concentration-dependent reduction in overall cell viability was observed (Table 1). When compared to Carfilzomib, similar concentrations of 7b (Te-Car) were needed to produce a 50% reduction in Jurkat cell viability.
Jurkat cells (CRL-2899) were purchased from ATCC were maintained in Rosewell Park Memorial Institute (RPMI) media supplemented with 10% fetal bovine serum (FBS) and 1% penicillin/streptomycin in a humidified 37° C. incubator with 5% CO2 (g), and cultured as per ATCC guidelines in culture flasks purchased from Starstedt.
Jurkat cells, at a concentration of approximately 12 500 cells/mL, were seeded in a 96 well plate in complete media in dosed with increasing concentrations (0-200 nM) of Carfilzomib or 7b (100 ul final volume) and left to incubate for 44 hours. Each concentration was repeated in triplicate. 10 uL of WST-1 was then added to each well, and the plate was allowed to incubate for 2 hours before the absorbance at 440 nm was measured. Absorbance signal in 100 uL complete media+10 uL WST-1 was first subtracted from each well before plotting the absorbance signal vs log (concentration). The concentration needed to see a 50% reduction in absorbance signal was then determined using GraphPad Prism software.

Where “and” joins values, the source holds several entries; their conditions need not be identical. Equal entries are not always repeated. Where two headings read alike, the source gives them in different places.

T1 sequence (P11388 whole entry): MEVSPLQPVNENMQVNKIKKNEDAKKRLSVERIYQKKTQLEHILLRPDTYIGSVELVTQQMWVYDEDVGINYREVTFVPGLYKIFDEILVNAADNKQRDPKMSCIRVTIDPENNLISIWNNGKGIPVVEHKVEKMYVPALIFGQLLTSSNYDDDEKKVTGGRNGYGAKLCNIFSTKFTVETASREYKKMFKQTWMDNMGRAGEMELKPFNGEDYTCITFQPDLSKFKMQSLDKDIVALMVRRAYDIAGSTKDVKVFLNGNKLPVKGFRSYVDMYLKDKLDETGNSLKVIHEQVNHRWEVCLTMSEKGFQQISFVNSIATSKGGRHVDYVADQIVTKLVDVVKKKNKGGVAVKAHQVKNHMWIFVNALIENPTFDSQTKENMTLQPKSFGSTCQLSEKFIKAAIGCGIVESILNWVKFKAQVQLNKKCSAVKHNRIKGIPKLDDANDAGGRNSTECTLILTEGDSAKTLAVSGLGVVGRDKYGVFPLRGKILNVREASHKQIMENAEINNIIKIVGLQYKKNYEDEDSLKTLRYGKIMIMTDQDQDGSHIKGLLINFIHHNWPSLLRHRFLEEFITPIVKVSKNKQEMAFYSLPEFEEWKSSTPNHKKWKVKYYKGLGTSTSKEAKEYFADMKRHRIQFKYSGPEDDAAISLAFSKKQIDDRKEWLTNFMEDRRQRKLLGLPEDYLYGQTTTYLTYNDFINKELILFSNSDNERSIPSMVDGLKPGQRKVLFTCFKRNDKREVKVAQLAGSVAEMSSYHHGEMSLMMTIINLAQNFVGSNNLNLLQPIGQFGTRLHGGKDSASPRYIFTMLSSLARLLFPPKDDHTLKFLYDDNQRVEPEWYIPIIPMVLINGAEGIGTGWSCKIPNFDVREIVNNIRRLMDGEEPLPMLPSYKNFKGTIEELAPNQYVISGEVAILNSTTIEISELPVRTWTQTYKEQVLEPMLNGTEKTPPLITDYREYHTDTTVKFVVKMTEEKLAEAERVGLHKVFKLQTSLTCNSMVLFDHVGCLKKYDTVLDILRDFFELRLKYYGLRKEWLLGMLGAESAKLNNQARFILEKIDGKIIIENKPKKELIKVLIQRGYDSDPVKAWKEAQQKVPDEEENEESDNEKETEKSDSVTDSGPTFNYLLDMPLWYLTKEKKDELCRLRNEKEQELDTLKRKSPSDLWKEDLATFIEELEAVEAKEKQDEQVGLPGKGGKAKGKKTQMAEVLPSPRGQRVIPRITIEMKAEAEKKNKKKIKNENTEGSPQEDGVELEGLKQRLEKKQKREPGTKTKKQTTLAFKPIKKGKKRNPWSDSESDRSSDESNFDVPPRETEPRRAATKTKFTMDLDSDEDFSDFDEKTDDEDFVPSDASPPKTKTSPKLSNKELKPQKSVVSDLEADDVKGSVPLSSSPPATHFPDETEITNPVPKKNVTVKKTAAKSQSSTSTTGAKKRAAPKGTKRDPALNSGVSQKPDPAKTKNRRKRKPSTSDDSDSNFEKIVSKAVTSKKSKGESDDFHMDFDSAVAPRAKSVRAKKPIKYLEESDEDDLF

Usually half-life stands for how long it takes for the measured level to halve. Take `COc1cc([C@@H]2c3cc4c(cc3[C@@H](O[C@@H]3O[C@@H]5CO[C@@H](c6cccs6)O[C@H]5[C@H](O)[C@H]3O)[C@H]3COC(=O)[C@H]23)OCO4)cc(OC)c1O` [teniposide, reference compound]: the “pH2AX^Ser139 levels in tumour sections relative to saline injected control” value in series [1] is “increased”. Moreover, the IC50 in [2] was 1300 to 9800 nM. In addition, the “inhibition of the decatenation reaction” value in series [3] was “dose-dependent inhibition”. The “loss of cell viability in PANC-1 cells” value in [4] was “almost complete loss of cell viability”. For the same compound, the inhibition at 50 µM in series [5] was not above 60%. Moreover, in series [6], the “levels of pH2AX^Ser139 relative to DMSO-treated control” value is listed as “Increased levels”. In addition, the half-life in [7] was 1 to 5 h.

As to `CC(C)C[C@H](NC(=O)[C@H](CCc1ccccc1)NC(=O)CN1CCOCC1)C(=O)N[C@@H](Cc1ccc[te]1)C(=O)N[C@@H](CC(C)C)C(=O)[C@@]1(C)CO1` (single isomer, unassigned) [7b], in [8] (7b and Carfilzomib 500 nM each, ^128Te), the “reduction in Te labelling on co-dosing with Carfilzomib” value is “approximately 50%”. Also, in [8] (mass cytometry), the “accumulation of tellurium within the cells” value is on record as “activity dependent accumulation”. In addition, the IC50 was 9.71 nM in series [9] (Homo sapiens, Jurkat, 44 h, read-out: IC50, viability of Jurkat cells, Average +/− SD, 44 hours, WST-1, average of 3 biological replicates); 9.48 nM in series [9] (Homo sapiens, Jurkat, 44 h, read-out: IC50, viability of Jurkat cells, single biological replicate, 44 hours, WST-1, Biol. Rep 1-3); 9.87 nM and 9.78 nM in series [9] (read-out: IC50, viability of Jurkat cells, single biological replicate, 44 hours, WST-1, Biol. Rep 1-3).

On to `CC(C)C[C@H](NC(=O)[C@H](CCc1ccccc1)NC(=O)CN1CCOCC1)C(=O)N[C@@H](Cc1ccccc1)C(=O)N[C@@H](CC(C)C)C(=O)[C@@]1(C)CO1` [Carfilzomib, reference compound], for which the IC50 in series [9] (44 hours, WST-1, Biol. Rep 1-3, read-out: IC50, viability of Jurkat cells, single biological replicate) was 9.99 nM and 9.41 nM; in [9] (Homo sapiens, Jurkat, 44 h, WST-1, Biol. Rep 1-3, read-out: IC50, viability of Jurkat cells, single biological replicate) it was 9.13 nM; in series [9] (Homo sapiens, Jurkat, 44 h, WST-1, average of 3 biological replicates, read-out: IC50, viability of Jurkat cells, Average +/− SD) it was 9.51 nM.
